Measured values as given in US20240116897A1, “BENZOTHIAZOLE AND BENZIMIDAZOLE DERIVATIVES, PHARMACEUTICALLY ACCEPTABLE SALT THEREOF, PREPARATION METHOD THEREFOR, AND PHARMACEUTICAL COMPOSITION COMPRISING SAME AS ACTIVE INGREDIENT” (KOREA RESEARCH INSTITUTE OF CHEMICAL TECHNOLOGY, priority 2021, published 2024).

Target: T1, SIRT7 protein (Homo sapiens, UniProt Q9NRC8)
T1 construct: purchased SignalChem S41-30H
T1 sequence (Q9NRC8 1-400): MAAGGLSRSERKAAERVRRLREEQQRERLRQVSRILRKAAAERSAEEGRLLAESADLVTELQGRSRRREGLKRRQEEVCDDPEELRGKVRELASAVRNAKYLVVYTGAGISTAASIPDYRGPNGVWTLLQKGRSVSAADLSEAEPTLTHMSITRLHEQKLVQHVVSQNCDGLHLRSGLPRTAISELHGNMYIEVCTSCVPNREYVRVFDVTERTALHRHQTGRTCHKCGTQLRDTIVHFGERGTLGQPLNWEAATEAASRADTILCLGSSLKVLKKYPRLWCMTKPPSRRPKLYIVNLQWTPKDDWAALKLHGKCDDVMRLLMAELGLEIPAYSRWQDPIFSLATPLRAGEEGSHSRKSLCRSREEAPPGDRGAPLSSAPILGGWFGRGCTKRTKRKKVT
Assay: SIRT Glo assay, inhibitory activity against Sirt7
Format: biochemical
Conditions: 10 μM compound
Method: Promega's Cat. No. 6450 SIRT Glo assay kit was used, and as the target SIRT7 protein, No. S41-30H protein of SignalChem's Cat. was used. Prepare the compound by diluting it in SIRT Glo buffer in advance to a concentration twice as thick as the final concentration. For the positive control group of white 384 well plate (Greiner Bioone, white, small volume, Cat. No. 874075), and for compound group, dilute sirt7 protein in SIRT Glo buffer and dispense by 5 μL to contain 20 ng per well. In the background control group, 10 μL of SIRT Glo buffer is dispensed.
After adding 5 μL of SIRT Glo buffer to the positive control group, and 5 μL of the diluted compound to the compound group, react for 30 minutes. After making the substrate provided in the SIRT Glo assay, adding 10 μL each, and reacting for 1 hour, the luciferase activity is measured with a microplate reader (Molecular Device, spectramax i3).
Subtract the luciferase level of the background control group in all wells. The % inhibition of the compound was used to obtain the compound's rate of inhibitory activity against sirt7 in the following:
% inhibition=100−(compound group/positive control group)×100.

## O=C(Nc1nc2ccccc2s1)c1ccc(CN2CCN(C(=O)Nc3ccccc3)CC2)cc1 [Compound 1-38, 4-(4-(benzo[d]thiazol-2-ylcarbamoyl)benzyl)-N-phenylpiperazine-1-carboxamide]
  inhibition at 10 µM: 98%

## O=C(Nc1nc2ccccc2s1)c1ccc(CN2CCN(C(=O)Nc3ccc(C(F)(F)F)cc3)CC2)cc1 [Compound 1-39, 4-(4-(benzo[d]thiazol-2-ylcarbamoyl)benzyl)-N-(4-(trifluoromethyl)phenyl)piperazine-1-carboxamide]
  inhibition at 10 µM: 87%

## CC(C)NC(=O)N1CCN(Cc2ccc(C(=O)Nc3nc4ccccc4s3)cc2)CC1 [Compound 1-40, 4-(4-(benzo[d]thiazol-2-ylcarbamoyl)benzyl)-N-isopropylpiperazine-1-carboxamide]
  inhibition at 10 µM: 87%

## O=C(Nc1nc2ccccc2s1)c1ccc(CN2CCN(C(=O)NC34CC5CC(CC(C5)C3)C4)CC2)cc1 [Compound 1-41]
  inhibition at 10 µM: 66%

## COc1ccc(NC(=O)N2CCN(Cc3ccc(C(=O)Nc4nc5ccccc5s4)cc3)CC2)cc1 [Compound 1-42, 4-(4-(benzo[d]thiazol-2-ylcarbamoyl)benzyl)-N-(4-methoxyphenyl)piperazine-1-carboxamide]
  inhibition at 10 µM: 89%

## O=C(Nc1nc2ccccc2s1)c1ccc(CN2CCN(C(=O)Nc3ccccc3C(F)(F)F)CC2)cc1 [Compound 1-43, 4-(4-(benzo[d]thiazol-2-ylcarbamoyl)benzyl)-N-(2-(trifluoromethyl)phenyl)piperazine-1-carboxamide]
  inhibition at 10 µM: 79%

## O=C(Nc1nc2ccccc2s1)c1ccc(CN2CCN(C(=O)Nc3ccc(F)cc3)CC2)cc1 [Compound 1-44, 4-(4-(benzo[d]thiazol-2-ylcarbamoyl)benzyl)-N-(4-fluorophenyl)piperazine-1-carboxamide]
  inhibition at 10 µM: 95%

## O=C(Nc1nc2ccccc2s1)c1ccc(CN2CCN(C(=O)Nc3ccccc3F)CC2)cc1 [Compound 1-45, 4-(4-(benzo[d]thiazol-2-ylcarbamoyl)benzyl)-N-(2-fluorophenyl)piperazine-1-carboxamide]
  inhibition at 10 µM: 96%

## O=C(Nc1nc2ccccc2s1)c1ccc(CN2CCN(C(=O)Nc3ccc4c(c3)CCC4)CC2)cc1 [Compound 1-46, 4-(4-(benzo[d]thiazol-2-ylcarbamoyl)benzyl)-N-(2,3-dihydro-1H-inden-5-yl)piperazine-1-carboxamide]
  inhibition at 10 µM: 84%

## Cc1cc(C)cc(NC(=O)N2CCN(Cc3ccc(C(=O)Nc4nc5ccccc5s4)cc3)CC2)c1 [Compound 1-47, 4-(4-(benzo[d]thiazol-2-ylcarbamoyl)benzyl)-N-(3,5-dimethyphenyl)piperazine-1-carboxamide]
  inhibition at 10 µM: 88%

## CCCCOC(=O)CNC(=O)N1CCN(Cc2ccc(C(=O)Nc3nc4ccccc4s3)cc2)CC1 [Compound 1-48, butyl-(4-(4-(benzo[d]thiazol-2-ylcarbamoyl)benzyl)piperazine-1-carbonyl)glycinate]
  inhibition at 10 µM: 54%

## O=C(Nc1nc2ccccc2s1)c1ccc(CN2CCN(C(=O)Nc3ccc(Cl)cc3)CC2)cc1 [Compound 1-49, 4-(4-(benzo[d]thiazol-2-ylcarbamoyl)benzyl)-N-(4-chlorophenyl)piperazine-1-carboxamide]
  inhibition at 10 µM: 89%

## CCc1ccccc1NC(=O)N1CCN(Cc2ccc(C(=O)Nc3nc4ccccc4s3)cc2)CC1 [Compound 1-50, 4-(4-(benzo[d]thiazol-2-ylcarbamoyl)benzyl)-N-(2-ethylphenyl)piperazine-1-carboxamide]
  inhibition at 10 µM: 61%

## Cc1ccc(NC(=O)N2CCN(Cc3ccc(C(=O)Nc4nc5ccccc5s4)cc3)CC2)cc1 [Compound 1-51, 4-(4-(benzo[d]thiazol-2-ylcarbamoyl)benzyl)-N-(p-tolyl)piperazine-1-carboxamide]
  inhibition at 10 µM: 90%

## CCc1ccc(NC(=O)N2CCN(Cc3ccc(C(=O)Nc4nc5ccccc5s4)cc3)CC2)cc1 [Compound 1-52, 4-(4-(benzo[d]thiazol-2-ylcarbamoyl)benzyl)-N-(4-ethylphenyl)piperazine-1-carboxamide]
  inhibition at 10 µM: 85%

## O=C(Nc1nc2ccccc2s1)c1ccc(CN2CCN(C(=O)NC3CCCCC3)CC2)cc1 [Compound 1-53, 4-(4-(benzo[d]thiazol-2-ylcarbamoyl)benzyl)-N-cyclohexylpiperazine-1-carboxamide]
  inhibition at 10 µM: 97%

## O=C(Nc1nc2ccccc2s1)c1ccc(CN2CCN(C(=O)NCCl)CC2)cc1 [Compound 1-54, 4-(4-(benzo[d]thiazol-2-ylcarbamoyl)benzyl)-N-(chloromethyl)piperazine-1-carboxamide]
  inhibition at 10 µM: 100%

## CCCNC(=O)N1CCN(Cc2ccc(C(=O)Nc3nc4ccccc4s3)cc2)CC1 [Compound 1-55, 4-(4-(benzo[d]thiazol-2-ylcarbamoyl)benzyl)-N-propylpiperazine-1-carboxamide]
  inhibition at 10 µM: 100%

## CCOc1ccccc1NC(=O)N1CCN(Cc2ccc(C(=O)Nc3nc4ccccc4s3)cc2)CC1 [Compound 1-56, 4-(4-(benzo[d]thiazol-2-ylcarbamoyl)benzyl)-N-(2-ethoxyphenyl)piperazine-1-carboxamide]
  inhibition at 10 µM: 87%

## CC(C)(C)CC(C)(C)NC(=O)N1CCN(Cc2ccc(C(=O)Nc3nc4ccccc4s3)cc2)CC1 [Compound 1-57, 4-(4-(benzo[d]thiazol-2-ylcarbamoyl)benzyl)-N-(2,4,4-trimethylpentan-2-yl)piperazine-1-carboxamide]
  inhibition at 10 µM: 12%

## O=C(Nc1nc2ccccc2s1)c1ccc(CN2CCN(C(=O)Nc3ccccc3Br)CC2)cc1 [Compound 1-58, 4-(4-(benzo[d]thiazol-2-ylcarbamoyl)benzyl)-N-(2-bromophenyl)piperazine-1-carboxamide]
  inhibition at 10 µM: 87%

## CCC(=O)N1CCN(Cc2ccc(C(=O)Nc3nc4ccccc4s3)cc2)CC1 [Compound 1-59, N-(benzo[d]thiazol-2-yl)-4-((4-propionylpiperazin-1-yl)methyl)benzamide]
  inhibition at 10 µM: 5%

## O=C(Nc1nc2ccccc2s1)c1ccc(CN2CCN(C(=O)c3ccccc3)CC2)cc1 [Compound 1-60, N-(benzo[d]thiazol-2-yl)-4-((4-benzoylpiperazin-1-yl)methyl)benzamide]
  inhibition at 10 µM: 7%

## CCN1CCN(Cc2ccc(C(=O)Nc3nc4ccccc4s3)cc2)CC1 [Compound 1-61, N-(benzo[d]thiazol-2-yl)-4-((4-ethylpiperazin-1-yl)methyl)benzamide]
  inhibition at 10 µM: 3%

## O=C(Nc1nc2ccccc2s1)c1ccc(CN2CCN(Cc3ccccc3)CC2)cc1 [Compound 1-62, N-(benzo[d]thiazol-2-yl)-4-((4-benzylpiperazin-1-yl)methyl)benzamide]
  inhibition at 10 µM: 7%

## CC(C)(C)OC(=O)N1CCC(=Cc2ccc(C(=O)Nc3nc4ccccc4s3)cc2)CC1 [Compound 1-63, tert-butyl 4-(4-(benzo[d]thiazol-2-ylcarbamoyl)benzylidene)piperidine-1-carboxylate]
  inhibition at 10 µM: 10%

## CC(C)(C)OC(=O)N1CCC(Cc2ccc(C(=O)Nc3nc4ccccc4s3)cc2)CC1 [Compound 1-64, tert-butyl 4-(4-(benzol[d]thiazol-2-ylcarbamoyl)benzyl)piperidine-1-carboxylate]
  inhibition at 10 µM: 7%

## O=C(Nc1nc2ccccc2s1)c1ccc(C=C2CCNCC2)cc1 [Compound 1-65, N-(benzo[d]thiazol-2-yl)-4-(piperidin-4-ylidenemethyl)benzamide]
  inhibition at 10 µM: 5%

## O=C(Nc1nc2ccccc2s1)c1ccc(CC2CCNCC2)cc1 [Compound 1-66, N-(benzo[d]thiazol-2-yl)-4-(piperidin-4-ylmethyl)benzamide]
  inhibition at 10 µM: 16%

## CCNC(=O)N1CCC(=Cc2ccc(C(=O)Nc3nc4ccccc4s3)cc2)CC1 [Compound 1-67, 4-(4-(benzo[d]thiazol-2-ylcarbamoyl)benzylidene)-N-ethylpiperidine-1-carboxamide]
  inhibition at 10 µM: 92%

## O=C(Nc1nc2ccccc2s1)c1ccc(C=C2CCN(C(=O)Nc3ccccc3)CC2)cc1 [Compound 1-68, 4-(4-(benzo[d]thiazol-2-ylcarbamoyl)benzylidene)-N-phenylpiperidine-1-carboxamide]
  inhibition at 10 µM: 100%

## CCNC(=O)N1CCC(Cc2ccc(C(=O)Nc3nc4ccccc4s3)cc2)CC1 [Compound 1-69, 4-(4-(benzo[d]thiazol-2-ylcarbamoyl)benzyl)-N-ethylpiperidine-1-carboxamide]
  inhibition at 10 µM: 100%

## O=C(Nc1nc2ccccc2s1)c1ccc(CN2C[C@@H]3C[C@H]2CN3)cc1 [Compound 1-71, 4-(((1S,4S)-2,5-diazabicyclo[2.2.1]heptan-2-yl)methyl)-N-(benzo[d]thiazol-2-yl)benzamide]
  inhibition at 10 µM: 23%

## CCNC(=O)N1C[C@@H]2C[C@H]1CN2Cc1ccc(C(=O)Nc2nc3ccccc3s2)cc1 [Compound 1-72, (1S,4S)-5-(4-(benzo[d]thiazol-2-ylcarbamoyl)benzyl)-N-ethyl-2,5-diazabicyclo[2.2.1]heptane-2-carboxamide]
  inhibition at 10 µM: 40%
